Patent publication US8877731B2, “Azido nucleosides and nucleotide analogs” (Alios Biopharma, Inc., priority 2010, dated 2014)
Where two headings read alike, the source gives them in different places.

Assays:
Format in all cases: cell-based
RSV Long strain = experiment: RSV CPE reduction assay
Procedure: CPE reduction assays were performed as described by Sidwell and Huffman et al., Appl Microbiol. (1971) 22(5):797-801 with slight modifications. HEp-2 cells (ATCC) at a concentration of 6000 cell/well were infected with RSV Long strain (ATCC) at a multiplicity of infection (m.o.i.) of 0.01, and each of the test compounds were provided to duplicate wells at final concentrations starting from 100 μM using ⅓ stepwise dilutions. For each compound, two wells were set aside as uninfected, untreated cell controls (CC), and two wells per test compound received virus only as a control for virus replication (VC). […] At the end of the incubation, 20 μl of cell counting kit-8 reagent (CCK-8, Dojindo Molecular Technologies, Inc.) were added to each well. After 4 hour incubation, the absorbance was measured in each well according to manufacturer's instruction, and the 50% effective concentration (EC50) was calculated by using regression analysis, based on the mean O.D. at each concentration of compound.
(§1) Compounds of Formula (I) and Formula (II) are active in the assay as noted in Tables 2 and 3, where ‘A’ indicates an EC50<1 μM, ‘B’ indicates an EC50 of >1 μM and <10 μM, ‘C’ indicates an EC50>10 μM and <100 μM, and ‘D’ indicates an EC50>100 μM.

RSV A2 = experiment: RSV RT-PCR based assay
Procedure: RT-PCR based assays were performed in HEp-2 cells (ATCC: CCL-23) at a concentration of 20000 cell/well were plated in 96 well plates and incubated overnight. Each of the test compounds were ⅓ serially diluted and dosed to HEp-2 cells in duplicates. The highest final concentration for each compound was 100 uM. After 24 hour compound pre-incubation, RSV A2 (ATCC: VR-1540) at MOI of 0.1 was added. Two wells per compound were set aside as uninfected, untreated cell controls (CC), and four wells per test compound received virus only as a control for virus replication (VC). The assay was stopped 4 days after virus infection and conditioned media was removed for viral RNA isolation. The quantities of the RSV virus were measured by real-time PCR using a set of RSV specific primers and probe. The data was analyzed with Prism software with EC50 defined as drug concentration that reduced the viral load 50% from the viral control (VC).
as §1

Influenza A/WSN/33 virus = experiment: Influenza antiviral assay (real-time PCR); settings: A549 cells, 24 hour pre-incubation, 72 hours, read-out: Percent Inhibition
[1] = human respiratory syncytial virus, 144 h, CPE assay, HEp-2 cells infected with RSV Long strain, m.o.i. 0.01, 6 days, CCK-8 readout, read-out: EC50
[2] = human respiratory syncytial virus, RT-PCR assay, HEp-2 cells, 24 hour compound pre-incubation, RSV A2 at MOI 0.1, 4 days after infection, viral load, read-out: EC50
[3] = human respiratory syncytial virus, HEp-2, 144 h
[4] = human respiratory syncytial virus, HEp-2

[N-]=[N+]=N[C@]1(CO)O[C@@H](n2ccc(N)nc2=O)[C@H](F)[C@@H]1O [Compound 2, 4′-azido-2′-deoxy-2′-fluorocytidine]
EC50 (RSV Long strain; [1]): < 1 µM
EC50 (RSV A2; [2]): < 1 µM
inhibition at 30 µM (Influenza A/WSN/33 virus): 99.8%

[N-]=[N+]=N[C@]1(CO)O[C@@H](n2cnc3c(=O)[nH]c(N)nc32)[C@H](O)[C@@H]1O [Compound 10, 4′-azidoguanosine]
EC50 (RSV Long strain; [1]): < 1 µM
EC50 (RSV A2; [2]): < 1 µM
inhibition at 30 µM (Influenza A/WSN/33 virus): 83.3%

[N-]=[N+]=N[C@]1(CO)O[C@@H](n2cnc3c(=O)[nH]c(N)nc32)[C@H](F)[C@@H]1O [Compound 27, 4′-azido-2′-deoxy-2′-fluoroguanosine]
EC50 (RSV Long strain; [1]): < 1 µM
EC50 (RSV A2; [2]): < 1 µM
inhibition at 30 µM (Influenza A/WSN/33 virus): 91%

[N-]=[N+]=N[C@]1(CO)O[C@@H](n2cnc3c(N)ncnc32)[C@H](F)[C@@H]1O [Compound 28, 4′-azido-2′-deoxy-2′-fluoroadenosine]
EC50 (RSV Long strain; [1]): > 100 µM
EC50 (RSV A2; [2]): > 100 µM
inhibition at 30 µM (Influenza A/WSN/33 virus): 94.6%

[N-]=[N+]=N[C@]1(CO)O[C@@H](n2cnc3c(=O)[nH]c(N)nc32)C(F)(F)[C@@H]1O [Compound 30, 4′-azido-2′-deoxy-2′,2′-difluoroguanosine]
EC50 (RSV A2; [2]): > 100 µM
inhibition at 30 µM (Influenza A/WSN/33 virus): 99.9%

C[C@]1(F)[C@H](n2ccc(N)nc2=O)O[C@@](CO)(N=[N+]=[N-])[C@H]1O [Compound 38, 4′-azido-2′-deoxy-2′-α-fluoro-2′-β-methylcytidine]
EC50 (RSV Long strain; [1]): > 100 µM
EC50 (RSV A2; [2]): > 100 µM

CC(C)OC(=O)[C@H](C)NP(=O)(N[C@@H](C)C(=O)OC(C)C)OC[C@@]1(N=[N+]=[N-])O[C@@H](n2ccc(=O)[nH]c2=O)C(F)(F)[C@@H]1O [Compound 39, 4′-azido-2′-deoxy-2′-difluorouridine 5′-(N,N-bis((S)-isopropoxycarbonyleth-1-yl))phosphordiamidate]
EC50 (RSV Long strain; [1]): > 100 µM
EC50 (RSV A2; [2]): > 100 µM

CC(C)OC(=O)[C@H](C)NP(=O)(N[C@@H](C)C(=O)OC(C)C)OC[C@@]1(N=[N+]=[N-])O[C@@H](n2ccc(=O)[nH]c2=O)[C@H](F)[C@@H]1O [Compound 40]
EC50 (RSV Long strain; [1]): > 100 µM
EC50 (RSV A2; [2]): > 100 µM

COP1(=S)OC[C@@]2(N=[N+]=[N-])O[C@@H](n3ccc(=O)[nH]c3=O)[C@H](F)[C@@H]2O1 (some centres unmarked) [Compound 41, 4′-azido-2′-deoxy-2′-fluorouridine 3′,5′-cyclic thiophosphoric acid methyl ester]
EC50 (RSV Long strain; [3]): > 100 µM
EC50 (RSV A2; [4]): > 100 µM

[N-]=[N+]=N[C@]1(CO)O[C@@H](n2cnc(C(N)=O)n2)[C@H](O)[C@@H]1O [Compound 43, 4′-azidoribavirin]
EC50 (RSV Long strain; [1]): 10 to 100 µM
EC50 (RSV A2; [2]): 10 to 100 µM

CC(C)OC(=O)[C@H](C)NP(=O)(N[C@@H](C)C(=O)OC(C)C)OC[C@@]1(N=[N+]=[N-])O[C@@H](n2ccc(=O)[nH]c2=O)[C@H](O)[C@@H]1O [Compound 44, 4′-azidouridine 5′-(N,N′-bis((S)-1-(isopropoxycarbonyl)ethyl))phosphorodiamidate]
EC50 (RSV Long strain; [1]): > 100 µM
EC50 (RSV A2; [2]): > 100 µM

CC(C)OP1(=S)OC[C@@]2(N=[N+]=[N-])O[C@@H](n3ccc(=O)[nH]c3=O)[C@H](F)[C@@H]2O1 (some centres unmarked) [Compound 45, 4′-azido-2′-deoxy-2′-fluorouridine 3′,5′-cyclic thiophosphoric acid isopropyl ester]
EC50 (RSV Long strain; [3]): > 100 µM
EC50 (RSV A2; [4]): > 100 µM

CC(C)OP1(=S)OC[C@@]2(N=[N+]=[N-])O[C@@H](n3ccc(N)nc3=O)[C@H](F)[C@@H]2O1 (some centres unmarked) [Compound 46, 4′-azido-2′-deoxy-2′-fluorocytidine 3′,5′-cyclic thiophosphoric acid isopropyl ester]
EC50 (RSV Long strain; [3]): > 100 µM
EC50 (RSV A2; [4]): > 100 µM

[N-]=[N+]=N[C@]1(CO)O[C@@H](n2cnc3c(=O)[nH]c(N)nc32)[C@@H](O)[C@@H]1O [Compound 47, 4′-azidoarabinoguanosine]
EC50 (RSV Long strain; [1]): > 100 µM
EC50 (RSV A2; [2]): > 100 µM

COc1nc(N)nc2c1ncn2[C@@H]1O[C@@](CO)(N=[N+]=[N-])[C@@H](O)[C@H]1F [Compound 48, 2-amino-9-(4-aido-2-deoxy-2-fluoro-1-ribofuranosyl)-6-methoxypurine]
EC50 (RSV Long strain; [1]): 1 to 10 µM
EC50 (RSV A2; [2]): < 1 µM

COc1nc(N)nc2c1ncn2C1O[C@@](CO)(N=[N+]=[N-])[C@@H](O)[C@H]1F (some centres unmarked) [Compound 49, 2-amino-9-(4-aido-2-deoxy-2-fluoro-1-ribofuranosyl)-6-methoxypurine]
EC50 (RSV Long strain; CPE assay, HEp-2 cells infected with RSV Long strain, m.o.i. 0.01, 6 days, CCK-8 readout, read-out: EC50): > 100 µM
EC50 (RSV A2; RT-PCR assay, HEp-2 cells, 24 hour compound pre-incubation, RSV A2 at MOI 0.1, 4 days after infection, viral load, read-out: EC50): > 100 µM

C[C@@]1(n2ccc(N)nc2=O)O[C@@](CO)(N=[N+]=[N-])[C@@H](O)[C@H]1O [Compound 50, 4′-azido-1′-methylcytidine]
EC50 (RSV Long strain; [1]): > 100 µM
EC50 (RSV A2; [2]): > 100 µM
inhibition at 30 µM (Influenza A/WSN/33 virus): 90.9%

C[C@]1(F)[C@H](n2ccc(=O)[nH]c2=O)O[C@@](CO)(N=[N+]=[N-])[C@H]1O [Compound 51, 4′-azido-2′-deoxy-2′-α-fluoro-2′-β-methyluridine]
EC50 (RSV Long strain; [1]): > 100 µM
EC50 (RSV A2; [2]): > 100 µM
